Results: ChEMBL document CHEMBL3885861, “Open TG-GATES”

Species: Rattus norvegicus
Assay: Open TG-GATES - Regimen: Single
Format: toxicity, organism-based, Sprague-Dawley
Design: regimen Single, gender Male, age 6 weeks
Conditions: in vivo, po, route gavage; for APTT / Bas / Eos / Fbg / Hb / Ht / Lym / MCH / MCHC / MCV / Mono / Neu / PT / Plat / RBC / Ret / WBC: tissue Blood; for KIDNEY_L / KIDNEY_R / KIDNEY_TOTAL: tissue Kidney; for LIVER: tissue Liver; for A/G / ALP / ALT / AST / BUN / CRE / Ca / Cl / DBIL / GLC / IP / K / LDH / Na / PL / RALB / TBIL / TC / TG / TP / gamma-GTP: tissue Plasma
[1] = 300 mg/kg, 3 h, dose level Middle
[2] = 300 mg/kg, 6 h, dose level Middle
[3] = 300 mg/kg, 9 h, dose level Middle
[4] = 300 mg/kg, 24 h, dose level Middle
[5] = 1000 mg/kg, 3 h, dose level High
[6] = 1000 mg/kg, 6 h, dose level High
[7] = 1000 mg/kg, 9 h, dose level High
[8] = 1000 mg/kg, 24 h, dose level High

CN/C(=N/CCSCc1nc[nH]c1C)NC#N [CIMETIDINE]
TERMINAL_BW [1]: 213.9 g
APTT [1]: 17.7 s
Bas [1]: 0%
Eos [1]: 0.8%
Fbg [1]: 212 mg/dL
Hb [1]: 12.6 g/dL
Ht [1]: 37.5%
Lym [1]: 77.6%
MCH [1]: 21.5 pg
MCHC [1]: 33.7%
MCV [1]: 63.8 fL
Mono [1]: 3%
Neu [1]: 17.2%
PT [1]: 12.8 s
Plat [1]: 128.8 x10_4/uL
RBC [1]: 587.2 x10_4/ul
Ret [1]: 8.2%
WBC [1]: 84.3 x10_2/uL
KIDNEY_L [1]: 1 g
KIDNEY_R [1]: 0.9 g
KIDNEY_TOTAL [1]: 1.9 g
LIVER [1]: 10.5 g
A/G [1]: 1.6
ALP [1]: 1248.6 IU/L
ALT [1]: 37.4 IU/L
AST [1]: 68.6 IU/L
BUN [1]: 10.8 mg/dL
CRE [1]: 0.4 mg/dL
Ca [1]: 10.7 mg/dL
Cl [1]: 103.4 meq/L
DBIL [1]: 0.072 mg/dL
GLC [1]: 191.2 mg/dL
IP [1]: 8.8 mg/dL
K [1]: 4.1 meq/L
LDH [1]: 155.6 IU/L
Na [1]: 140.8 meq/L
PL [1]: 158 mg/dL
RALB [1]: 3.3 g/dL
TBIL [1]: 0.1 mg/dL
TC [1]: 83 mg/dL
TG [1]: 57 mg/dL
TP [1]: 5.4 g/dL
gamma-GTP [1]: 1.4 IU/L
TERMINAL_BW [2]: 209.1 g
APTT [2]: 19.5 s
Bas [2]: 0%
Eos [2]: 1%
Fbg [2]: 224 mg/dL
Hb [2]: 13 g/dL
Ht [2]: 37.3%
Lym [2]: 72.4%
MCH [2]: 21.6 pg
MCHC [2]: 34.8%
MCV [2]: 62.2 fL
Mono [2]: 3.4%
Neu [2]: 22.6%
PT [2]: 13.4 s
Plat [2]: 134.4 x10_4/uL
RBC [2]: 600.8 x10_4/ul
Ret [2]: 7.9%
WBC [2]: 100.3 x10_2/uL
KIDNEY_L [2]: 1 g
KIDNEY_R [2]: 1 g
KIDNEY_TOTAL [2]: 1.9 g
LIVER [2]: 9.3 g
A/G [2]: 1.7
ALP [2]: 926.2 IU/L
ALT [2]: 38.2 IU/L
AST [2]: 68 IU/L
BUN [2]: 8.4 mg/dL
CRE [2]: 0.4 mg/dL
Ca [2]: 10.4 mg/dL
Cl [2]: 103.2 meq/L
DBIL [2]: 0.068 mg/dL
GLC [2]: 185 mg/dL
IP [2]: 9.6 mg/dL
K [2]: 3.8 meq/L
LDH [2]: 148.6 IU/L
Na [2]: 141 meq/L
PL [2]: 138.2 mg/dL
RALB [2]: 3.4 g/dL
TBIL [2]: 0.1 mg/dL
TC [2]: 70.2 mg/dL
TG [2]: 60 mg/dL
TP [2]: 5.5 g/dL
gamma-GTP [2]: 1.4 IU/L
TERMINAL_BW [3]: 208.3 g
APTT [3]: 20.6 s
Bas [3]: 0%
Eos [3]: 0.8%
Fbg [3]: 214.4 mg/dL
Hb [3]: 12.6 g/dL
Ht [3]: 36.5%
Lym [3]: 80.2%
MCH [3]: 21.6 pg
MCHC [3]: 34.5%
MCV [3]: 62.6 fL
Mono [3]: 2.6%
Neu [3]: 15.6%
PT [3]: 13.9 s
Plat [3]: 126.2 x10_4/uL
RBC [3]: 583.4 x10_4/ul
Ret [3]: 7.8%
WBC [3]: 70.7 x10_2/uL
KIDNEY_L [3]: 1 g
KIDNEY_R [3]: 1 g
KIDNEY_TOTAL [3]: 1.9 g
LIVER [3]: 8.8 g
A/G [3]: 1.7
ALP [3]: 807.2 IU/L
ALT [3]: 31 IU/L
AST [3]: 58.6 IU/L
BUN [3]: 9.8 mg/dL
CRE [3]: 0.4 mg/dL
Ca [3]: 10.3 mg/dL
Cl [3]: 102 meq/L
DBIL [3]: 0.068 mg/dL
GLC [3]: 189.8 mg/dL
IP [3]: 10.3 mg/dL
K [3]: 3.9 meq/L
LDH [3]: 115.6 IU/L
Na [3]: 141 meq/L
PL [3]: 136 mg/dL
RALB [3]: 3.4 g/dL
TBIL [3]: 0.1 mg/dL
TC [3]: 72.4 mg/dL
TG [3]: 36.4 mg/dL
TP [3]: 5.5 g/dL
gamma-GTP [3]: 1.6 IU/L
TERMINAL_BW [4]: 223.6 g
APTT [4]: 19.1 s
Bas [4]: 0%
Eos [4]: 0.8%
Fbg [4]: 214.8 mg/dL
Hb [4]: 13.5 g/dL
Ht [4]: 40.7%
Lym [4]: 82.2%
MCH [4]: 21.5 pg
MCHC [4]: 33.3%
MCV [4]: 64.5 fL
Mono [4]: 2.2%
Neu [4]: 13.6%
PT [4]: 12.7 s
Plat [4]: 126.7 x10_4/uL
RBC [4]: 631.2 x10_4/ul
Ret [4]: 6.5%
WBC [4]: 86.6 x10_2/uL
KIDNEY_L [4]: 1 g
KIDNEY_R [4]: 1 g
KIDNEY_TOTAL [4]: 2 g
LIVER [4]: 10.7 g
A/G [4]: 1.6
ALP [4]: 1056 IU/L
ALT [4]: 35.8 IU/L
AST [4]: 67.8 IU/L
BUN [4]: 15.4 mg/dL
CRE [4]: 0.4 mg/dL
Ca [4]: 10.9 mg/dL
Cl [4]: 102.2 meq/L
DBIL [4]: 0.09 mg/dL
GLC [4]: 200.8 mg/dL
IP [4]: 7.4 mg/dL
K [4]: 3.9 meq/L
LDH [4]: 183.4 IU/L
Na [4]: 140.8 meq/L
PL [4]: 159.8 mg/dL
RALB [4]: 3.5 g/dL
TBIL [4]: 0.2 mg/dL
TC [4]: 77.8 mg/dL
TG [4]: 94 mg/dL
TP [4]: 5.6 g/dL
gamma-GTP [4]: 1.6 IU/L
TERMINAL_BW [5]: 215.2 g
APTT [5]: 19.1 s
Bas [5]: 0%
Eos [5]: 1%
Fbg [5]: 216.2 mg/dL
Hb [5]: 12.3 g/dL
Ht [5]: 36.7%
Lym [5]: 76.4%
MCH [5]: 21.2 pg
MCHC [5]: 33.5%
MCV [5]: 63.1 fL
Mono [5]: 3%
Neu [5]: 18.6%
PT [5]: 13.1 s
Plat [5]: 126.2 x10_4/uL
RBC [5]: 582 x10_4/ul
Ret [5]: 7.9%
WBC [5]: 89.9 x10_2/uL
KIDNEY_L [5]: 1 g
KIDNEY_R [5]: 1 g
KIDNEY_TOTAL [5]: 2 g
LIVER [5]: 9.8 g
A/G [5]: 1.7
ALP [5]: 1031 IU/L
ALT [5]: 35.6 IU/L
AST [5]: 67 IU/L
BUN [5]: 8.6 mg/dL
CRE [5]: 0.4 mg/dL
Ca [5]: 10.6 mg/dL
Cl [5]: 104.4 meq/L
DBIL [5]: 0.068 mg/dL
GLC [5]: 181.8 mg/dL
IP [5]: 8.3 mg/dL
K [5]: 4 meq/L
LDH [5]: 175 IU/L
Na [5]: 141.4 meq/L
PL [5]: 150.2 mg/dL
RALB [5]: 3.3 g/dL
TBIL [5]: 0.1 mg/dL
TC [5]: 77.6 mg/dL
TG [5]: 46.6 mg/dL
TP [5]: 5.3 g/dL
gamma-GTP [5]: 1 IU/L
TERMINAL_BW [6]: 211.9 g
APTT [6]: 19 s
Bas [6]: 0%
Eos [6]: 0.8%
Fbg [6]: 227.4 mg/dL
Hb [6]: 13.2 g/dL
Ht [6]: 38.2%
Lym [6]: 78%
MCH [6]: 21.7 pg
MCHC [6]: 34.5%
MCV [6]: 63 fL
Mono [6]: 2.8%
Neu [6]: 17.2%
PT [6]: 13.5 s
Plat [6]: 125.8 x10_4/uL
RBC [6]: 607.4 x10_4/ul
Ret [6]: 7.6%
WBC [6]: 100.8 x10_2/uL
KIDNEY_L [6]: 1 g
KIDNEY_R [6]: 1 g
KIDNEY_TOTAL [6]: 2 g
LIVER [6]: 9.6 g
A/G [6]: 1.5
ALP [6]: 955 IU/L
ALT [6]: 34.2 IU/L
AST [6]: 65.8 IU/L
BUN [6]: 8.2 mg/dL
CRE [6]: 0.4 mg/dL
Ca [6]: 10.6 mg/dL
Cl [6]: 103.6 meq/L
DBIL [6]: 0.078 mg/dL
GLC [6]: 200.8 mg/dL
IP [6]: 9.8 mg/dL
K [6]: 4 meq/L
LDH [6]: 162.2 IU/L
Na [6]: 142.4 meq/L
PL [6]: 153.4 mg/dL
RALB [6]: 3.4 g/dL
TBIL [6]: 0.1 mg/dL
TC [6]: 75.6 mg/dL
TG [6]: 83.2 mg/dL
TP [6]: 5.6 g/dL
gamma-GTP [6]: 1.2 IU/L
TERMINAL_BW [7]: 208.6 g
APTT [7]: 18.7 s
Bas [7]: 0%
Eos [7]: 1%
Fbg [7]: 229.2 mg/dL
Hb [7]: 13.1 g/dL
Ht [7]: 37.4%
Lym [7]: 80%
MCH [7]: 22.1 pg
MCHC [7]: 35.1%
MCV [7]: 63 fL
Mono [7]: 2.4%
Neu [7]: 15.6%
PT [7]: 14.1 s
Plat [7]: 120.4 x10_4/uL
RBC [7]: 594.2 x10_4/ul
Ret [7]: 7.9%
WBC [7]: 94.9 x10_2/uL
KIDNEY_L [7]: 0.9 g
KIDNEY_R [7]: 0.9 g
KIDNEY_TOTAL [7]: 1.9 g
LIVER [7]: 8.9 g
A/G [7]: 1.7
ALP [7]: 1031 IU/L
ALT [7]: 32.8 IU/L
AST [7]: 62.4 IU/L
BUN [7]: 8.2 mg/dL
CRE [7]: 0.4 mg/dL
Ca [7]: 10.3 mg/dL
Cl [7]: 103.6 meq/L
DBIL [7]: 0.068 mg/dL
GLC [7]: 193.6 mg/dL
IP [7]: 9.7 mg/dL
K [7]: 3.7 meq/L
LDH [7]: 157 IU/L
Na [7]: 142 meq/L
PL [7]: 150.4 mg/dL
RALB [7]: 3.5 g/dL
TBIL [7]: 0.1 mg/dL
TC [7]: 77.2 mg/dL
TG [7]: 58.6 mg/dL
TP [7]: 5.5 g/dL
gamma-GTP [7]: 1.4 IU/L
TERMINAL_BW [8]: 223 g
APTT [8]: 19.3 s
Bas [8]: 0%
Eos [8]: 1%
Fbg [8]: 212.4 mg/dL
Hb [8]: 13.1 g/dL
Ht [8]: 39%
Lym [8]: 80.6%
MCH [8]: 21.3 pg
MCHC [8]: 33.6%
MCV [8]: 63.4 fL
Mono [8]: 2.4%
Neu [8]: 14.8%
PT [8]: 13 s
Plat [8]: 122.4 x10_4/uL
RBC [8]: 616 x10_4/ul
Ret [8]: 6.8%
WBC [8]: 101.7 x10_2/uL
KIDNEY_L [8]: 1 g
KIDNEY_R [8]: 1 g
KIDNEY_TOTAL [8]: 2 g
LIVER [8]: 10.6 g
A/G [8]: 1.6
ALP [8]: 1054.4 IU/L
ALT [8]: 34.2 IU/L
AST [8]: 68.8 IU/L
BUN [8]: 17.8 mg/dL
CRE [8]: 0.4 mg/dL
Ca [8]: 10.6 mg/dL
Cl [8]: 102 meq/L
DBIL [8]: 0.1 mg/dL
GLC [8]: 206.8 mg/dL
IP [8]: 7.7 mg/dL
K [8]: 3.8 meq/L
LDH [8]: 200 IU/L
Na [8]: 140 meq/L
PL [8]: 148 mg/dL
RALB [8]: 3.3 g/dL
TBIL [8]: 0.2 mg/dL
TC [8]: 76.2 mg/dL
TG [8]: 96.2 mg/dL
TP [8]: 5.4 g/dL
gamma-GTP [8]: 1.4 IU/L
